PubChem BioAssay (NCI)
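Five concentrations, 48 hours, 96-well plates. At the TGI there is no net growth.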

Experiments:
Assay in all cases: inhibition of tumour cell growth, NCI panel, 48 h
[1] = system: DLD-1 colon
[2] = system: DMS 114 small cell lung
[3] = system: DMS 273 small cell lung
[4] = system: KM20L2 colon
[5] = system: LXFL 529 NSCLC
[6] = system: SNB-78 CNS
[7] = system: XF 498 CNS

Measured: TGI

O=C(c1ccco1)N(C(=S)N1CCN(c2ccccc2)CC1)c1ccccc1
not listed: [7]
> 100 µM: all other assays above

Cn1c2ccccc2n2c3nc4ccccc4nc3c(C#N)c12
not listed: [4] | [6]
> 100 µM: all other assays above
